The values below come from the supplement of paper PMC11208160.
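Further: IS621 recombinase and bridge RNA in Escherichia coli cells.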

The nature of the data set: recombinant barcode read abundance after kanamycin selection (control-corrected) (log10(CPM+1)); higher = more efficient recombination; sequences stand for … in AGTGCAGAGAAAATCGGCCAGTTTTCTCTGCCTGCAGTCCGCATGCCGT…AGATTTATGCAGCGGACTGCCTTTCTCCCAAAGTGATAAACCGGACAGTATCATGGACCGGTTTTCCCGGTAATCCGTATTTGCAAGGTTGGTTTCACT; site = the 11-nt target. The procedure, abridged:
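Targets and IS621 bridge RNA target-binding loops were paired in oligos, each with a promoter, a barcode and the J23119-driven first 104 bridge RNA bases. A vector carrying the remaining 73 bp and a T7-inducible recombinase received these by Gibson cloning, and the pool was co-electroporated into E. coli with a donor plasmid. Duplicate plates contained chloramphenicol/ampicillin LB agar (control) or chloramphenicol/ampicillin/kanamycin with 0.1 mM IPTG. Recombination efficiency comes from averaged, control-corrected counts per million of recombinant-junction barcodes, reported as log10(CPM+1).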
Regarding “CATTTCACTTGGGTTCTAACCTGTTGCCT (site CATTTCACTAG)”, the “recombinant barcode read abundance (log10)” value stood at 0.379.

With “CATTTCACTTGGGTTCTAACCTGTTGCCT (site GCCCATGCTCC)”, the “recombinant barcode read abundance (log10)” value was 0.0522.

As for “CATTTCCCTTGGGTTCTAACCTGTTGCTT (site CATTTCCCTAA)”, the “recombinant barcode read abundance (log10)” value turned out to be 0.122.

On to “CATTTCCCTTGGGTTCTAACCTGTTGCTT (site CATTTCCCTAG)”, for which the “recombinant barcode read abundance (log10)” value amounted to 0.246.

In the case of “CATTTCTCTTGGGTTCTAACCTGTTGCCT (site AATTTCTCTAG)”, the “recombinant barcode read abundance (log10)” value amounted to 0.0363.

With “CATTTCTCTTGGGTTCTAACCTGTTGCCT (site CATTTCTCTAG)”, the “recombinant barcode read abundance (log10)” value turned out to be 0.341.

Take “CATTTCTCTTGGGTTCTAACCTGTTGCCT (site GATTTCTCTAG)”: the “recombinant barcode read abundance (log10)” value turned out to be 0.116.

As to “CATTTCTCTTGGGTTCTAACCTGTTGCCT (site TATTTCTCTAG)”, the “recombinant barcode read abundance (log10)” value was 0.00749.

On to “CCAAAGACTTGGGTTCTAACCTGTTGCTT (site CCAAAGACTAA)”, for which the “recombinant barcode read abundance (log10)” value was found to be 0.653.

“CCAAAGACTTGGGTTCTAACCTGTTGCTT (site GGGTCACCTCC)”: the “recombinant barcode read abundance (log10)” value was found to be 0.

Take “CCACACTCTTGGGTTCTAACCTGTTGCCT (site CAACACTCTAG)”: the “recombinant barcode read abundance (log10)” value is 0.0891.

For “CCACACTCTTGGGTTCTAACCTGTTGCCT (site CCACACTCTAG)”, the “recombinant barcode read abundance (log10)” value worked out at 1.27.

With “CCACACTCTTGGGTTCTAACCTGTTGCCT (site CGACACTCTAG)”, the “recombinant barcode read abundance (log10)” value was 0.0247.

As to “CCACACTCTTGGGTTCTAACCTGTTGCCT (site CTACACTCTAG)”, the “recombinant barcode read abundance (log10)” value was 0.171.

In the case of “CCACATCCTTGGGTTCTAACCTGTTGCCT (site CCACATCCTAG)”, the “recombinant barcode read abundance (log10)” value is 0.289.

In the case of “CCACATCCTTGGGTTCTAACCTGTTGCCT (site GCACACCCTAG)”, the “recombinant barcode read abundance (log10)” value was 0.109.

Consider “CCACCGTCTTGGGTTCTAACCTGTTGCCT (site CCACAGTCTAG)”, for which the “recombinant barcode read abundance (log10)” value came to 0.171.

With “CCACCGTCTTGGGTTCTAACCTGTTGCCT (site CCACCGTCTAG)”, the “recombinant barcode read abundance (log10)” value was 0.156.

Regarding “CCACCGTCTTGGGTTCTAACCTGTTGCCT (site CCACGGTCTAG)”, the “recombinant barcode read abundance (log10)” value was 0.177.

On to “CCACCGTCTTGGGTTCTAACCTGTTGCCT (site CCACTGTCTAG)”, for which the “recombinant barcode read abundance (log10)” value amounted to 0.175.

For the sequence “CCACGGTCTTGGGTTCTAACCTGTTGCCT (site CCACAGTCTAG)”, the “recombinant barcode read abundance (log10)” value turned out to be 0.161.

As to “CCACGGTCTTGGGTTCTAACCTGTTGCCT (site CCACCGTCTAG)”, the “recombinant barcode read abundance (log10)” value was determined as 0.0249.

Take “CCACGGTCTTGGGTTCTAACCTGTTGCCT (site CCACGGTCTAG)”: the “recombinant barcode read abundance (log10)” value came out at 1.1.

As for “CCACGGTCTTGGGTTCTAACCTGTTGCCT (site CCACTGTCTAG)”, the “recombinant barcode read abundance (log10)” value came out at 0.033.

As for “CCAGAAGCTTGGGTTCTAACCTGTTGCCT (site CCAGAAGCTAG)”, the “recombinant barcode read abundance (log10)” value turned out to be 0.179.

Take “CCAGAAGCTTGGGTTCTAACCTGTTGCCT (site CCAGCAGCTAG)”: the “recombinant barcode read abundance (log10)” value stood at 0.222.

“CCAGAAGCTTGGGTTCTAACCTGTTGCCT (site CCAGGAGCTAG)”: the “recombinant barcode read abundance (log10)” value was 0.407.

Regarding “CCAGAAGCTTGGGTTCTAACCTGTTGCCT (site CCAGTAGCTAG)”, the “recombinant barcode read abundance (log10)” value came out at 0.0645.

On to “CCAGGACCTTGGGTTCTAACCTGTTGCCT (site CCAGGACCTAG)”, for which the “recombinant barcode read abundance (log10)” value was found to be 2.2.

Consider “CCAGGACCTTGGGTTCTAACCTGTTGCCT (site CGAGGACCTAG)”, for which the “recombinant barcode read abundance (log10)” value was 0.291.

Turning to “CCAGGAGCTTGGGTTCTAACCTGTTGCCT (site CCAGAAGCTAG)”, the “recombinant barcode read abundance (log10)” value was 0.338.

For the sequence “CCAGGAGCTTGGGTTCTAACCTGTTGCCT (site CCAGCAGCTAG)”, the “recombinant barcode read abundance (log10)” value was found to be 0.103.

Turning to “CCAGGAGCTTGGGTTCTAACCTGTTGCCT (site CCAGGAGCTAG)”, the “recombinant barcode read abundance (log10)” value worked out at 0.545.

On to “CCAGGAGCTTGGGTTCTAACCTGTTGCCT (site CCAGTAGCTAG)”, for which the “recombinant barcode read abundance (log10)” value came out at 0.109.

Turning to “CCAGGTACTTGGGTTCTAACCTGTTGCCT (site ACAGGTACTAG)”, the “recombinant barcode read abundance (log10)” value came to 0.272.

Consider “CCAGGTACTTGGGTTCTAACCTGTTGCCT (site CCAGGTACTAG)”, for which the “recombinant barcode read abundance (log10)” value turned out to be 0.701.

With “CCAGGTACTTGGGTTCTAACCTGTTGCCT (site GCAGGTACTAG)”, the “recombinant barcode read abundance (log10)” value stood at 0.117.

In the case of “CCAGGTACTTGGGTTCTAACCTGTTGCCT (site TCAGGTACTAG)”, the “recombinant barcode read abundance (log10)” value worked out at 0.182.

With “CCAGGTCCTTGGGTTCTAACCTGTTGCAT (site CCAGGTCCTAC)”, the “recombinant barcode read abundance (log10)” value amounted to 0.111.

With “CCAGGTCCTTGGGTTCTAACCTGTTGCAT (site CCAGGTCCTAT)”, the “recombinant barcode read abundance (log10)” value came to 2.25.

With “CCAGGTGCTTGGGTTCTAACCTGTTGCGG (site CCAGGTGCTCC)”, the “recombinant barcode read abundance (log10)” value was 1.62.

Regarding “CCAGGTGCTTGGGTTCTAACCTGTTGCGG (site GGCTTGACTAG)”, the “recombinant barcode read abundance (log10)” value turned out to be 0.0921.

Consider “CCAGTAACTTGGGTTCTAACCTGTTGCCT (site CCAGTAACTAG)”, for which the “recombinant barcode read abundance (log10)” value amounted to 0.659.

Regarding “CCAGTAACTTGGGTTCTAACCTGTTGCCT (site CCAGTCACTAG)”, the “recombinant barcode read abundance (log10)” value was 0.137.

In the case of “CCAGTAACTTGGGTTCTAACCTGTTGCCT (site CCAGTGACTAG)”, the “recombinant barcode read abundance (log10)” value is 0.082.

With “CCAGTAACTTGGGTTCTAACCTGTTGCCT (site CCAGTTACTAG)”, the “recombinant barcode read abundance (log10)” value amounted to 0.0883.

Turning to “CCAGTAGCTTGGGTTCTAACCTGTTGCCT (site CCAGAAGCTAG)”, the “recombinant barcode read abundance (log10)” value worked out at 0.382.

“CCAGTAGCTTGGGTTCTAACCTGTTGCCT (site CCAGCAGCTAG)”: the “recombinant barcode read abundance (log10)” value is 0.161.

Regarding “CCAGTAGCTTGGGTTCTAACCTGTTGCCT (site CCAGGAGCTAG)”, the “recombinant barcode read abundance (log10)” value stood at 0.193.

“CCAGTAGCTTGGGTTCTAACCTGTTGCCT (site CCAGTAGCTAG)”: the “recombinant barcode read abundance (log10)” value stood at 0.52.

Take “CCAGTCACTTGGGTTCTAACCTGTTGCCT (site CCAGTAACTAG)”: the “recombinant barcode read abundance (log10)” value stood at 0.377.

On to “CCAGTCACTTGGGTTCTAACCTGTTGCCT (site CCAGTCACTAG)”, for which the “recombinant barcode read abundance (log10)” value came to 1.88.

Consider “CCAGTCACTTGGGTTCTAACCTGTTGCCT (site CCAGTGACTAG)”, for which the “recombinant barcode read abundance (log10)” value worked out at 0.176.

With “CCAGTCACTTGGGTTCTAACCTGTTGCCT (site CCAGTTACTAG)”, the “recombinant barcode read abundance (log10)” value was found to be 0.19.

Consider “CCAGTGACTTGGGTTCTAACCTGTTGCCT (site CCAGTAACTAG)”, for which the “recombinant barcode read abundance (log10)” value was 0.931.

Turning to “CCAGTGACTTGGGTTCTAACCTGTTGCCT (site CCAGTCACTAG)”, the “recombinant barcode read abundance (log10)” value is 0.299.

“CCAGTGACTTGGGTTCTAACCTGTTGCCT (site CCAGTGACTAG)”: the “recombinant barcode read abundance (log10)” value amounted to 1.38.

In the case of “CCAGTGACTTGGGTTCTAACCTGTTGCCT (site CCAGTTACTAG)”, the “recombinant barcode read abundance (log10)” value came out at 0.254.

As for “CCATGGACTTGGGTTCTAACCTGTTGCCT (site CCAAGGACTAG)”, the “recombinant barcode read abundance (log10)” value came out at 0.202.

In the case of “CCATGGACTTGGGTTCTAACCTGTTGCCT (site CCACGGACTAG)”, the “recombinant barcode read abundance (log10)” value came to 0.516.

Consider “CCATGGACTTGGGTTCTAACCTGTTGCCT (site CCAGGGACTAG)”, for which the “recombinant barcode read abundance (log10)” value was found to be 0.0382.

Consider “CCATGGACTTGGGTTCTAACCTGTTGCCT (site CCATGGACTAG)”, for which the “recombinant barcode read abundance (log10)” value came out at 0.252.

For the sequence “CCGAAGACTTGGGTTCTAACCTGTTGCCT (site CCGAAGACTAG)”, the “recombinant barcode read abundance (log10)” value was found to be 0.112.

Regarding “CCGAAGACTTGGGTTCTAACCTGTTGCCT (site TCGAAGACTTG)”, the “recombinant barcode read abundance (log10)” value amounted to 0.492.

With “CCGACTCCTTGGGTTCTAACCTGTTGCCT (site CCGAATCCTAG)”, the “recombinant barcode read abundance (log10)” value came to 0.0273.

Regarding “CCGACTCCTTGGGTTCTAACCTGTTGCCT (site CCGACTCCTAG)”, the “recombinant barcode read abundance (log10)” value stood at 0.13.

Turning to “CCGACTCCTTGGGTTCTAACCTGTTGCCT (site CCGAGTCCTAG)”, the “recombinant barcode read abundance (log10)” value was 0.

With “CCGACTCCTTGGGTTCTAACCTGTTGCCT (site CCGATTCCTAG)”, the “recombinant barcode read abundance (log10)” value came to 0.102.

In the case of “CCGATTCCTTGGGTTCTAACCTGTTGCCT (site CCGAATCCTAG)”, the “recombinant barcode read abundance (log10)” value worked out at 0.153.

“CCGATTCCTTGGGTTCTAACCTGTTGCCT (site CCGACTCCTAG)”: the “recombinant barcode read abundance (log10)” value was determined as 0.171.

Regarding “CCGATTCCTTGGGTTCTAACCTGTTGCCT (site CCGAGTCCTAG)”, the “recombinant barcode read abundance (log10)” value came out at 0.0319.

In the case of “CCGATTCCTTGGGTTCTAACCTGTTGCCT (site CCGATTCCTAG)”, the “recombinant barcode read abundance (log10)” value was 0.217.

Turning to “CCGCAGCCTTGGGTTCTAACCTGTTGCCT (site CCGAAGCCTAG)”, the “recombinant barcode read abundance (log10)” value worked out at 0.0264.

Regarding “CCGCAGCCTTGGGTTCTAACCTGTTGCCT (site CCGCAGCCTAG)”, the “recombinant barcode read abundance (log10)” value was determined as 1.59.

As to “CCGCAGCCTTGGGTTCTAACCTGTTGCCT (site CCGGAGCCTAG)”, the “recombinant barcode read abundance (log10)” value came out at 0.177.

On to “CCGCAGCCTTGGGTTCTAACCTGTTGCCT (site CCGTAGCCTAG)”, for which the “recombinant barcode read abundance (log10)” value is 0.0447.

In the case of “CCGCCAGCTTGGGTTCTAACCTGTTGCCT (site CCGCCAGCTAG)”, the “recombinant barcode read abundance (log10)” value amounted to 0.171.
